# Conditions: not given
SMILES,boiling point [°C],log10 vapour pressure (mmHg),ready biodegradability,melting point [°C],log10 Koa,log10 Koc (L/kg),log10 Henry constant (atm·m³/mol)
CCN(CC)CCO,163,0.146,not readily biodegradable,,,,
CC(=O)CCCCC(C)=O,,,,44,,,
CCCCC(CC)COC(=O)CCCCCCCC(=O)OCC(CC)CCCC (stereo unspecified),,,readily biodegradable,-78,,,
O=C(O)c1c(Br)cccc1Br,,,,150,,,
CC(=O)CC(=O)c1cccnc1,,,,85,,,
CN(C)N=O,154,0.431,not readily biodegradable,,,,
Nc1ccc(S(N)(=O)=O)cc1,,,not readily biodegradable,,,,
COc1ccccc1-c1ccccc1,274,,,29,,,
O=C(c1ccccc1)N1CCCCC1,320,,,49,,,
COC(=O)c1ccc(O)cc1,,,,131,8.57,,
CC(C)C[Si](Cl)(Cl)Cl,143,,,,,,
OCc1cccnc1,266,,,-6.5,,,
CNC(=O)Oc1cc(C)cc(C(C)C)c1,,-4.52,,87,,2.48,
CC(=O)CO,146,,readily biodegradable,-17,,,
CCCCc1ccc(C(=O)O)cc1,,,,106,,,
CC(C)C(=O)C(=O)C(C)C,144,,,,,,
Oc1c(O)c(Br)c(Br)c(Br)c1Br,,,,191,,,
Clc1cccc2cc3ccccc3cc12,,,,83.5,,,
FC(F)OC(C(F)(F)F)C(F)(F)F,42.1,2.59,,,,,

SMILES,boiling point [°C],log10 vapour pressure (mmHg),ready biodegradability,melting point [°C],log10 Koa,log10 Koc (L/kg),log10 Henry constant (atm·m³/mol)
COC(=O)C1(S(=O)(=O)c2ccc(Br)cc2)CCCC1,,,,104,,,
Cc1ccc(C(C)C)c(O)c1,232,-2.66,not readily biodegradable,51.5,,,
NCCCN1CCN(CCCN)CC1,,,,15,,,
CCCCCCCOc1ccc(O)cc1,,,,61.5,,,
CCC1(c2ccccc2)C(=O)N(COC)C(=O)N(COC)C1=O,,,,117,,,
N=C(N)c1ccc(Oc2ccc(C(=N)N)cc2)cc1,,,,216,,,
O=C1CCC(=O)CC1,,,,78,,,
O=C(O)[C@H]1CC=CCC1,234,,,17,,,
N#CCCN(CCC#N)c1ccc(N=Nc2c(Cl)cc([N+](=O)[O-])cc2Cl)cc1,,,not readily biodegradable,,,,
CCCCCCC(C)O (racemic),179,,,3.5,,,
CCCCl,46.5,2.54,,-123,2.24,,
CCCCCCCOC(=O)CC,210,,,-50.9,,,
CCC=CCC(=O)OCC,166,,,,,,
NC(=O)Nc1ccc(F)cc1,,,,,,1.52,
CN(C)C(O)=Nc1ccc(-n2nc(C(C)(C)C)oc2=O)c(Cl)c1,,,,193,,,
C=Cc1ccc(C(=O)O)cc1,,,,144,,,
CC(C)NCC(O)COc1ccc(O)cc1 (stereo unspecified),,,,128,,,
Cc1ccc(P(c2ccc(C)cc2)c2ccc(C)cc2)cc1,,,,149,,,
CCCCOC(=O)CC(C)=O,,,readily biodegradable,-35.6,,,

SMILES,boiling point [°C],log10 vapour pressure (mmHg),ready biodegradability,melting point [°C],log10 Koa,log10 Koc (L/kg),log10 Henry constant (atm·m³/mol)
c1ccc(Cc2ccncc2)cc1,288,,,12.4,,,
ClC=CCl,55,2.3,not readily biodegradable,-57,,,-2.39
Nc1ccc(Nc2ccccc2)cc1,354,-4.92,,66,,,
BrCCBr,132,1.05,not readily biodegradable,9.9,,1.71,-3.19
CC(=O)C(C)(C)O,140,0.792,,,,,
CC[Si](F)(CC)CC,110,1.57,,,,,
CCC(C)c1ccccc1O (stereo unspecified),228,,not readily biodegradable,16,,,
CCC(C)C(=O)C(C)CC (stereo unspecified),162,,,,,,
CN(C)c1ccc(C(O)c2ccc(N(C)C)cc2)cc1,,,,101,,,
CC(=O)N=C1C=CC(=O)C=C1,,,,74.5,,,
CCCNc1c([N+](=O)[O-])cc(C(F)(F)F)cc1[N+](=O)[O-],,,,,,3.61,
Clc1cc2c(oc3c(Cl)cccc32)c(Cl)c1Cl,,-7.4,,190,,,
CC(C)=NNc1ccccc1,,,,42,,,
CC/C=C\CO,138,,,,,,
Fc1c(F)c(F)c(-c2c(F)c(F)c(F)c(F)c2F)c(F)c1F,206,,,67.5,,,
OCCCCCO,239,-2.41,readily biodegradable,-18,,,
CCOC(=O)c1cccc(O)c1,,,readily biodegradable,74,,,
O=C(O)c1cc(Cl)cc(Cl)c1Cl,,-3.51,,166,,,

# Same assay, conditions: fish
SMILES,log10 BCF,log10 biotransformation half-life (days)
CCCCCCc1ccc(-c2ccc(C#N)cc2)cc1,3.52,0.85
FC(F)(F)c1ccc(Cl)cc1Cl,3.37,1.81
O=[N+]([O-])c1c(Cl)c(Cl)c(Cl)c(Cl)c1Cl,2.74,-0.17
Clc1cc2c(cc1Cl)Oc1cc(Cl)c(Cl)cc1O2,4.99,1.78
Oc1ccccc1,1.24,
c1ccc2cc3c(ccc4c5ccccc5ccc34)cc2c1,,0.58
N#Cc1nn(-c2c(Cl)cc(C(F)(F)F)cc2Cl)c(N)c1S(=O)(=O)C(F)(F)F,,1.05
BrCCBr,1.18,-0.83

# From the OPERA property sets (Mansouri et al. 2018)
